Assay results reported in patent publication US4387098A, “Imidazo[1,2-a]quinoline derivatives useful as anxiolytics” (Roussel Uclaf, priority 1981, dated 1983).

Tests used:
[1] = anxiolytic activity, one-day lick shock method of Vogel et al; assay type: in vivo; conditions: po, 24 h, orally, read-out: minimum effective dose (MED) at which there was an observed increase in shocks above control
Method: B. Screening for anxiolytic activity was carried out by the one-day lick shock method of Vogel et al [Psychopharmacologia, 1971 Vol. 21, p. 1]. The values of Table VI are the minimum effective doses (MED) in mg/kg orally at which there was an observed increase in shocks above control.

benzodiazepine receptor = benzodiazepine receptor affinity, [^3 H] flunitrazepam radio receptor binding (modified Squires and Braestrup) on rat forebrain membrane preparations; conditions: 0.6 nM [^3 H] flunitrazepam, read-out: IC50, inhibition of the specific binding of [^3 H] flunitrazepam by 50%
Method: A. The affinity of the compounds for the benzodiazepine receptor was assessed using the radioligand [^3 H] flunitrazepam and modifications of the original radio receptor binding method of Squires and Braestrup (Nature, 1977, Vol. 266, p. 732). The values of Table V are nanomolar concentrations of test compound which inhibited the specific binding of 0.6 nM[^3 H] flunitrazepam to rat forebrain membrane preparations by 50% (IC50 nM).

| SMILES | minimal effective dose [1] [mg/kg] | IC50 (benzodiazepine receptor) [nM] |
| --- | --- | --- |
| COc1cc2nc(C(=O)c3ccccc3)cn2c2ccc(C(C)C)cc12 [Example 15] | 10 | 25 |
| CCc1ccc2c(c1)c(OC)cc1nc(C(C)=O)cn12 [Example 6] | 20 | 1300 |
| CCCOc1cc2nc(C(=O)c3ccccc3)cn2c2ccccc12 [Example 12] |  | 1000 |
| COc1cc2nc(C(=O)c3ccccc3)cn2c2ccc(C)cc12 [Example 13] | 25 | 21 |
| COc1cc2nc(C(=O)c3ccccc3)cn2c2ccc(F)cc12 [Example 31] |  | 74 |
| COc1cc2nc(C(=O)c3ccccc3)cn2c2cccc(C)c12 [Example 25] |  | 11 |
| COc1cc2nc(C(=O)c3ccc(Cl)cc3)cn2c2ccccc12 [Example 20] |  | 96 |
| COc1ccc(C(=O)c2cn3c(cc(OC)c4ccccc43)n2)cc1 [Example 18] |  | 37 |
| COc1cc2nc(C(=O)c3ccccc3)cn2c2ccc(Cl)cc12 [Example 7] |  | 600 |
| COc1ccc2c(OC)cc3nc(C(=O)c4ccccc4)cn3c2c1 [Example 3] |  | 5000 |
| COc1cc2nc(C(=O)c3ccccc3)cn2c2ccc(Oc3ccccc3)cc12 [Example 27] |  | 210 |
| COc1cc2nc(C(=O)c3ccccc3)cn2c2cc(C)ccc12 [Example 24] |  | 290 |
| CCCCc1ccc2c(c1)c(OC)cc1nc(C(=O)c3ccccc3)cn12 [Example 16] | 25 | 57 |
| CCOc1cc2nc(C(=O)c3ccccc3)cn2c2ccccc12 [Example 9] |  | 540 |
| COc1cc2nc(C(=O)c3ccccc3)cn2c2cc(Cl)ccc12 [Example 22] |  | 340 |
| CSc1cc2nc(C(=O)c3ccccc3)cn2c2ccccc12 [Example 2, (5-methylthio-imidazo[1,2-a]quinolin-2-yl)-phenyl-methanone] |  | 500 |
| COc1cc2nc(C(=O)c3ccccc3)cn2c2c(Cl)cccc12 [Example 23] |  | 132 |
| COc1cc2nc(C(=O)c3ccccc3)cn2c2ccc(C3CCCCC3)cc12 [Example 26] |  | 10000 |
| CCc1ccc2c(c1)c(OC)cc1nc(C(=O)c3ccccn3)cn12 [Example 30] |  | 92 |
| CCc1ccc(C(=O)c2cn3c(cc(OC)c4ccccc43)n2)cc1 [Example 11, (4-ethyl-phenyl)(5-methoxy-imidazo[1,2-a]quinolin-2-yl)-methanone] |  | 67 |
| COc1cc2nc(C(=O)c3cccs3)cn2c2ccccc12 [Example 21] |  | 24 |
| COc1cc2nc(C(=O)c3ccccc3)cn2c2ccccc12 [Example 4, (5-methoxy-imidazo[1,2-a]quinolin-2-yl)-phenyl-methanone] | 25 | 27 |
| COc1cc2nc(C(=O)c3ccccc3)cn2c2c(OC)cccc12 [Example 19] |  | 630 |
| CCc1ccc(C(=O)c2cn3c(cc(OC)c4cc(CC)ccc43)n2)cc1 [Example 29] |  | 51 |
| CCc1ccc2c(c1)c(OC)cc1nc(C(=O)c3ccccc3)cn12 [Example 1] | 20 | 14 |
| CCc1ccc2c(c1)c(OC)cc1nc(C(=O)c3ccc(OC)cc3)cn12 [Example 28] |  | 30 |
| COc1ccc2c(c1)c(OC)cc1nc(C(=O)c3ccccc3)cn12 [Example 14] |  | 51 |
| COc1cc2nc(C(=O)c3ccc(C)cc3)cn2c2ccccc12 [Example 17] |  | 19 |
| CC(C)Oc1cc2nc(C(=O)c3ccccc3)cn2c2ccccc12 [Example 8, (5-isopropoxy-imidazo[1,2-a]quinolin-2-yl)-phenyl-methanone] |  | 470 |
| CCCCOc1cc2nc(C(=O)c3ccccc3)cn2c2ccccc12 [Example 10] |  | 1000 |
